# Laboratory results: US20260263481A1, “COMPOSITION FOR TREATING OR PREVENTING KIDNEY DISEASES” (ORGANOIDSCIENCES LTD., priority 2022, published 2026)
# Legend:
# [1] = system: human renal tubule cell line HK-2; assay: Cytotoxicity / cell viability assay in HK-2 cells
# Procedure: Specifically, the human renal tubule cell line HK-2 was treated with PGF2α at a concentration of 50 μM and with colistin at 400 μg/mL. In the case of pretreatment with PGF2α, colistin was treated 24 hours after treatment with PGF2α, and the cells were cultured for 48 hours, followed by an assay to evaluate cytotoxicity. In the case of co-treatment, PGF2α and colistin were treated simultaneously, and the cells were cultured for 48 hours, followed by the assay.
# Specifically, bimatoprost was treated to human renal tubule cell line HK-2 at concentrations of 0.1 μM, 0.5 μM, 1.0 μM, 5.0 μM, 10 μM, 20 μM, and 50 μM, and the vehicle-treated group was used as a control. In the case of pretreatment with bimatoprost, colistin was treated 24 hours after bimatoprost treatment, followed by incubation for 48 hours and a cytotoxicity assay. In the case of co-treatment, bimatoprost and colistin were treated simultaneously, followed by 48 hours of incubation and the cytotoxicity assay.
# [2] = system: Escherichia coli; assay: Paper disk antibacterial activity on LB medium; type: cell-based; conditions: 24 hours; for growth of E. coli: substance alone on paper disk
# Procedure: Specifically, Escherichia coli, a Gram-negative bacterium, was spread onto an LB medium, and paper disks were treated with bimatoprost and/or colistin. Saline containing 1% DMSO was used as a vehicle. After placing the paper disks onto the LB medium, incubation was carried out for 24 hours.
# [3] = system: human renal tubule cell line HK-2; assay: Reactive oxygen species (ROS) generation in HK-2 cells; type: cell-based
# Procedure: After 48 hours of incubation, ROS generated in the HK-2 cells was analyzed.
# Specifically, intracellular reactive oxygen species (ROS) levels were measured by fluorescence spectroscopy after treatment with bimatoprost and/or colistin. Saline containing 1% DMSO was used as a vehicle.
# [4] = system: C57BL/6N mice; assay: Colistin-induced nephrotoxicity model in mice; type: in vivo; conditions: 14 days
# Procedure: Specifically, a colistin-induced nephrotoxicity model was established using 6-week-old C57BL/6N mice. The control group (vehicle-treated group) was prepared by intraperitoneally injecting mice with vehicle (saline containing 1% DMSO) every 12 hours for 14 days. The colistin-treated group was prepared by intraperitoneally injecting colistin at 10 mg/kg every 12 hours for 14 days. The bimatoprost-treated group was prepared by intraperitoneally injecting bimatoprost at 1 mg/kg every 12 hours for 14 days. The bimatoprost and colistin co-treatment group was prepared by intraperitoneally injecting bimatoprost at 1 mg/kg and colistin at 10 mg/kg every 12 hours for 14 days. After 14 days of administration, tissue, blood, and kidneys were collected from the mice, and key indicators of kidney disease, including kidney color, body weight, blood urea nitrogen levels, blood creatinine levels, and expression of kidney injury marker-1 (KIM-1), were analyzed.
# [5] = system: human renal tubule cell line HK-2; assay: TUNEL assay for apoptosis in HK-2 cells; type: cell-based
# Procedure: To evaluate the effect of PGF2α on kidney diseases, the influence of PGF2α on apoptosis in kidney cells induced by antibiotic treatment was assessed. Colistin, a type of antibiotic, is known to accumulate in proximal tubular cells and induce apoptosis by increasing the expression of the Fas death receptor or by increasing the generation of reactive oxygen species. […] After 48 hours of incubation, a TUNEL assay was conducted to assess apoptosis. Cells that tested positive in the TUNEL assay were considered apoptotic cells.
# Specifically, a vehicle-treated group, a group treated with vehicle and colistin, and a group treated with bimatoprost and colistin were prepared. Apoptosis in HK-2 cells was analyzed using a TUNEL assay.
# [6] = colistin 10 mg/kg i.p. every 12 hours
# [7] = PGF2α 50 μM co-treated with colistin 400 μg/mL, 48 hours
# [8] = bimatoprost 1 mg/kg + colistin 10 mg/kg i.p. every 12 hours
compound,measurement,setting,value
colistin,cells survived compared to those not treated with colistin,"[1]; colistin 400 μg/mL, 48 hours",about 50%
same,growth of E. coli,[2],markedly suppressed
same,ROS levels compared to cells not treated with colistin,"[3]; colistin 400 μg/mL, 48 hours (Example 1-3)",more than fivefold
same,increase in ROS levels compared to the vehicle-treated group,"[3]; colistin-treated group (Example 2-3), fluorescence spectroscopy",more than 2.5 fold
same,KIM-1 expression in kidney,[4]; [6],clearly observed
same,blood creatinine levels relative to vehicle-treated group,[4]; [6],approximately 1.5 times
same,blood urea nitrogen levels relative to vehicle-treated group,[4]; [6],approximately 1.5 times
same,body weight,[4]; [6],reduction in body weight after day 6
same,kidney color,[4]; [6],became paler
same,increase in apoptosis compared to cells not treated with colistin,"[5]; colistin 400 μg/mL, 48 hours",approximately 30%
same,apoptotic cells (TUNEL),[5]; vehicle and colistin vs vehicle-treated group (Example 2-2),significant increase in apoptotic cells
"CCCCC[C@H](O)/C=C/[C@@H]1[C@@H](C/C=C\CCCC(=O)O)[C@@H](O)C[C@H]1O [PGF2α, prostaglandin F2α]",reduction of colistin-induced increase in ROS,[3]; [7],approximately 1.5 fold
same,ROS levels,"[3]; PGF2α alone, 50 μM, 48 hours",decreased
same,colistin-induced increase in apoptosis,[5]; [7],reduced by about half
CCNC(=O)CCC/C=C\C[C@@H]1[C@@H](/C=C/[C@@H](O)CCc2ccccc2)[C@H](O)C[C@@H]1O [bimatoprost],extent of cell death induced by colistin compared to cells not treated with bimatoprost,[1]; bimatoprost pretreated at 10 μM,reduced by approximately fourfold
same,effect on colistin-induced cell death,"[1]; bimatoprost pretreatment 24 hours before colistin, then 48 hours",reduced colistin-induced cell death
same,inhibitory effect on E. coli growth,[2]; colistin and bimatoprost together on paper disk,at the same level as that observed in the group treated with colistin alone
same,growth of E. coli,[2],not inhibited
same,colistin-induced increase in ROS,"[3]; bimatoprost and colistin, level similar to vehicle-treated group",reduced to approximately half
same,KIM-1 area compared to the colistin-treated group,[4]; [8],reduced by about eight times
same,KIM-1 expression in kidney,[4]; [8],barely observed
same,blood creatinine levels,[4]; [8],lower than those in the colistin-treated group
same,blood urea nitrogen levels,[4]; [8],lower than those in the colistin-treated group
same,body weight,[4]; [8],weight loss was not observed
same,kidney color,[4]; [8],recovered to a level similar to that of the vehicle-treated group
same,number of apoptotic cells compared to the group treated with vehicle and colistin,[5]; bimatoprost and colistin co-treated,reduced by approximately threefold
